Holding throughout (assay): cell-based
For test [1], the target named is T1, rat nAChR α3β2 (Rattus norvegicus, UniProt P04757+P12390).
T1 construct: expressed in transfected cells; host or cells: Xenopus oocytes injected with cRNA
The format is cell-based.

Test [2] addresses T2, rat nAChR α3β4 (Rattus norvegicus, UniProt P04757+P12392).
T2 construct: expressed in transfected cells; host or cells: Xenopus oocytes injected with cRNA

For test [3], the target named is T3, rat nAChR α7 (Rattus norvegicus, UniProt Q05941).
T3 construct: expressed in transfected cells; host or cells: Xenopus oocytes injected with cRNA

Test [4] concerns the target T4, rat nAChR α9α10 (Rattus norvegicus, UniProt P43144+Q9JLB5).
T4 construct: expressed in transfected cells; host or cells: Xenopus oocytes injected with cRNA

Test [5] deals with T5, rat nAChR α2β4 (Rattus norvegicus, UniProt P12389+P12392).
T5 construct: expressed in transfected cells; host or cells: Xenopus oocytes injected with cRNA
As to conditions: for IC50: IC50 α2β4.

Test [6] has as its target T1, rat nAChR α3β2. The format is cell-based. This is another data set of the same source.

Values joined by “and” are separate entries in the source; they are usually repeats but may differ in a detail not shown here. Identical values can stand only once. Positions of bridges follow the written chain, without caps; N, C: chain ends. Residues, ends and D or L forms follow the SMILES beside them. Bounds are passed on as bounds.

T5 sequence (P12389 28-511 limits assumed): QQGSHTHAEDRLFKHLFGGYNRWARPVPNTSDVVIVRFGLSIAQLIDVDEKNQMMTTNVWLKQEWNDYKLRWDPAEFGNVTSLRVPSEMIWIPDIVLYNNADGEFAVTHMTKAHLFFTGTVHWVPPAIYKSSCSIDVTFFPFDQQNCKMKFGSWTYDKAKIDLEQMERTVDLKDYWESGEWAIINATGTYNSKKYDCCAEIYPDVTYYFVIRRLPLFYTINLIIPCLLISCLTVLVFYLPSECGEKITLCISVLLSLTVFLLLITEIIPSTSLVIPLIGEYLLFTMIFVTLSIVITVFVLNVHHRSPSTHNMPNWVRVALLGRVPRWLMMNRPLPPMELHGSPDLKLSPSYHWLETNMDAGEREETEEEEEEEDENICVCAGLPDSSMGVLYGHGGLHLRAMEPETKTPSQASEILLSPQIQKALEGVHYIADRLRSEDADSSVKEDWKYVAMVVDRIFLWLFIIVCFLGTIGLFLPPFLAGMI
T5 sequence (P12392 21-495 limits assumed): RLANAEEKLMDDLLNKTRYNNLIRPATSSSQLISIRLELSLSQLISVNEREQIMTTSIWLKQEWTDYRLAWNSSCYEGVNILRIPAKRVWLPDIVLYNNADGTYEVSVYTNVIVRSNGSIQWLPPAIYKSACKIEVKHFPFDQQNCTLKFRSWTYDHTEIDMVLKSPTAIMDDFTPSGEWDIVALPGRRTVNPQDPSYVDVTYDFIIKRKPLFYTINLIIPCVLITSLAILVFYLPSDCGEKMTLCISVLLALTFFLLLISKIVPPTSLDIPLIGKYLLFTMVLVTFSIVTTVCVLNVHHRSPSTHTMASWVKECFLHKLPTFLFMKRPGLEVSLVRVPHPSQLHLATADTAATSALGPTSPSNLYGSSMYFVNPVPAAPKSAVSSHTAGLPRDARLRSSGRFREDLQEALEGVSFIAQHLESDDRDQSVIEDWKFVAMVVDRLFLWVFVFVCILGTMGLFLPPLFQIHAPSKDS
T1 sequence (P04757 26-499 limits assumed): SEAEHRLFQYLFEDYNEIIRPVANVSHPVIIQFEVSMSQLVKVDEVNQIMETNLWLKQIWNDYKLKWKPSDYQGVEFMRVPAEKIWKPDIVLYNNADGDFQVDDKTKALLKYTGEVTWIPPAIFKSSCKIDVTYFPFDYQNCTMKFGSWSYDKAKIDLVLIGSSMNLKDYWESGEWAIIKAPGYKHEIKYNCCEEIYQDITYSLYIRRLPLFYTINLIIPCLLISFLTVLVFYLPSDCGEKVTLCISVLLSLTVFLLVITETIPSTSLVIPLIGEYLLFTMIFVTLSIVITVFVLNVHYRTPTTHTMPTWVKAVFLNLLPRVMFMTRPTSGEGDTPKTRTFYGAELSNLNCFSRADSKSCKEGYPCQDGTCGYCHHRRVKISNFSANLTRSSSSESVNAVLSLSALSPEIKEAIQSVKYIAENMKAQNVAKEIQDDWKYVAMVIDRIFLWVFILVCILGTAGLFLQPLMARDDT
T1 sequence (P12390 25-500 limits assumed): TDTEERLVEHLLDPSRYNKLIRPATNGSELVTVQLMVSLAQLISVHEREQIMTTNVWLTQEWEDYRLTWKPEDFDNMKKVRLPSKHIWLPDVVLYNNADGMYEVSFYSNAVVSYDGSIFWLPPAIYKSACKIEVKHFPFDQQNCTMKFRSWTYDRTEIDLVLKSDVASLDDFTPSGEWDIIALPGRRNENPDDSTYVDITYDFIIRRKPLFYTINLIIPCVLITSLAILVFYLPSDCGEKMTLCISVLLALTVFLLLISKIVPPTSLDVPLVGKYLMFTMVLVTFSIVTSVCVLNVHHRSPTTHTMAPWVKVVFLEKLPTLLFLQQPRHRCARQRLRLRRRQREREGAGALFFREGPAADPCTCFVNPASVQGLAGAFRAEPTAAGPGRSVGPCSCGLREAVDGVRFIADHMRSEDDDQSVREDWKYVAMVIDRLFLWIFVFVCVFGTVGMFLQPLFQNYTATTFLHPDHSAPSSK
T2 sequence (P04757 26-499 limits assumed): as the sequence (P04757 26-499 limits assumed) above
T2 sequence (P12392 21-495 limits assumed): as the sequence (P12392 21-495 limits assumed) above
T3 sequence (Q05941 23-502 limits assumed): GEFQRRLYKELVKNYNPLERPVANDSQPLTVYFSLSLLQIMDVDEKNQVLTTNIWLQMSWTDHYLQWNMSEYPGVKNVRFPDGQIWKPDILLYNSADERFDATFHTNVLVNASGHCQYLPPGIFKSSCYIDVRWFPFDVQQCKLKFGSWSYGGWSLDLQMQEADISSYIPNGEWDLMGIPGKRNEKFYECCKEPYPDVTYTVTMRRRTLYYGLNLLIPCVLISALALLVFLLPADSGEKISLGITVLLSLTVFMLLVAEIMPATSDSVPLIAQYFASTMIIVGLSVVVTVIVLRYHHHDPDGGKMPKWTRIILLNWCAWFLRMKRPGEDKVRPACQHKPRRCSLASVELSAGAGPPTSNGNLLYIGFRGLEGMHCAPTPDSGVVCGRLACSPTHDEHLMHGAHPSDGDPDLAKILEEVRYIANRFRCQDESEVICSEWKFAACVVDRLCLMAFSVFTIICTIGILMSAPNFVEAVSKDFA
T4 sequence (P43144 26-479 limits assumed): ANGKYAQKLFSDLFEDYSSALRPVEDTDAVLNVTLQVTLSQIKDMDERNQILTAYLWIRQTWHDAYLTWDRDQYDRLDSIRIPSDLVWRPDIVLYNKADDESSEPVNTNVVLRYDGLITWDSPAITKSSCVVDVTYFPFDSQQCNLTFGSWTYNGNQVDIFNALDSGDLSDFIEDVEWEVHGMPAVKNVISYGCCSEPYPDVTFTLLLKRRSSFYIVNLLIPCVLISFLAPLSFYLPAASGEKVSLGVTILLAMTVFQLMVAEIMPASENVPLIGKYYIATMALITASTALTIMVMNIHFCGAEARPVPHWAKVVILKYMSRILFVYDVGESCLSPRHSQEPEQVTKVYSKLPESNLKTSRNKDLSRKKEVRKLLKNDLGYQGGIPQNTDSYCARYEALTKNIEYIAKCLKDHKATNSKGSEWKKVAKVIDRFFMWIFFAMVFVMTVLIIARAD
T4 sequence (Q9JLB5 25-447 limits assumed): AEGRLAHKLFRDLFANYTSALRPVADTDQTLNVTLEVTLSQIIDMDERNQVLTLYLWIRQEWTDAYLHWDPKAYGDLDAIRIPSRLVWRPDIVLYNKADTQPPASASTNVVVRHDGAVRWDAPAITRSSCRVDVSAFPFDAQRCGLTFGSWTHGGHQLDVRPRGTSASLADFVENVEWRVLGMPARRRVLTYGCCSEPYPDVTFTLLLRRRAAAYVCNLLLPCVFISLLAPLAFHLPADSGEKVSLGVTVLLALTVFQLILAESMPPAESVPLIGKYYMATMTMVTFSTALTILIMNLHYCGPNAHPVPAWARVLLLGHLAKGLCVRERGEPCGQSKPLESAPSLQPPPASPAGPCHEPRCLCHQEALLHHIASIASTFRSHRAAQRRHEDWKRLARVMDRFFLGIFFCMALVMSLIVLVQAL

Regarding `CC(C)C[C@@H]1NC(=O)[C@H](CCC(=O)O)NC(=O)[C@@H]2CCCN2C(=O)[C@H](Cc2c[nH]cn2)NC(=O)[C@H](CC(N)=O)NC(=O)[C@H](C(C)C)NC(=O)[C@H](Cc2c[nH]cn2)NC(=O)[C@@H]2CSSC[C@H](NC(=O)[C@H](C)NC(=O)[C@@H]3CCCN3)C(=O)N[C@@H](CSSC[C@@H](C(N)=O)NC1=O)C(=O)N[C@@H]([C@@H](C)O)C(=O)N[C@@H](Cc1c[nH]cn1)C(=O)N1CCC[C@H]1C(=O)N[C@@H](C)C(=O)N2` [Mr1.7[E2A,S12N]] (H-PACCTHPACHVNHPELC-NH2; disulfide 3-9, 4-17), in test [1], the kon was 73800 M⁻¹ s⁻¹. Moreover, in test [1] (SEM), the koff is 0.00173 s⁻¹. In addition, the IC50 in test [2] is 556 nM; in test [3] it was 591 nM; in test [4] it was above 10 µM; in test [5] it was 3490 nM.

`CC(C)C[C@@H]1NC(=O)[C@H](CCC(=O)O)NC(=O)[C@@H]2CCCN2C(=O)[C@H](Cc2c[nH]cn2)NC(=O)[C@H](CO)NC(=O)[C@H](C(C)C)NC(=O)[C@H](Cc2c[nH]cn2)NC(=O)[C@@H]2CSSC[C@H](NC(=O)[C@H](C)NC(=O)[C@@H]3CCCN3)C(=O)N[C@@H](CSSC[C@@H](C(N)=O)NC1=O)C(=O)N[C@@H]([C@@H](C)O)C(=O)N[C@@H](Cc1c[nH]cn1)C(=O)N1CCC[C@H]1C(=O)N[C@@H](C)C(=O)N2` [Mr1.7[E2A]] (H-PACCTHPACHVSHPELC-NH2; disulfide 3-9, 4-17) had a kon in test [1] of 86300 M⁻¹ s⁻¹. The compound further showed a koff in test [1] (SEM) of 0.0028 s⁻¹. In addition, the IC50 in test [2] is above 10000 nM; in test [3], above 10000 nM; in test [4], above 10 µM; in test [5], above 10000 nM. The “selectivity index (SI) for α3β2” value in test [6] was above 847.

Turning to `CC(C)C[C@@H]1NC(=O)[C@H](CCC(=O)O)NC(=O)[C@@H]2CCCN2C(=O)[C@H](Cc2c[nH]cn2)NC(=O)[C@H](CC(N)=O)NC(=O)CNC(=O)[C@H](Cc2c[nH]cn2)NC(=O)[C@@H]2CSSC[C@H](NC(=O)CN)C(=O)N[C@@H](CSSC[C@@H](C(N)=O)NC1=O)C(=O)N[C@@H]([C@@H](C)O)C(=O)N[C@@H](Cc1c[nH]cn1)C(=O)N1CCC[C@H]1C(=O)N[C@@H](C)C(=O)N2` [Mr1.7[E2G,V11G,S12N,Δ1]] (H-GCCTHPACHGNHPELC-NH2; disulfide 2-8, 3-16; N-terminus assumed), in test [1], the “50% recovery from block” value came out at 3.3 min, the kon was 208000 M⁻¹ s⁻¹ and the t1/2 was 3.286 (2.842–3.894) min. In test [1] (SEM), the kobs worked out at 1.460 ± 0.2516 min⁻¹ and the koff is 0.00352 s⁻¹. Also, in test [2], 125 nM corresponded to half-maximal inhibition (IC50) and the α3β4/α3β2 is given as 27. In addition, in test [3], the IC50 was above 10000 nM and the α7/α3β2 is reported as above 2272. In test [4], the IC50 is above 10 µM and the α9α10/α3β2 is on record as above 2272. In test [5], the α2β4/α3β2 was found to be 89 and the IC50 amounted to 390 nM.

In test [6], `CC(C)C[C@@H]1NC(=O)[C@H](CCC(=O)O)NC(=O)[C@@H]2CCCN2C(=O)[C@H](Cc2c[nH]cn2)NC(=O)[C@H](CO)NC(=O)[C@H](C(C)C)NC(=O)[C@H](C)NC(=O)[C@@H]2CSSC[C@H](NC(=O)[C@H](CCC(=O)O)NC(=O)[C@@H]3CCCN3)C(=O)N[C@@H](CSSC[C@@H](C(N)=O)NC1=O)C(=O)N[C@@H]([C@@H](C)O)C(=O)N[C@@H](Cc1c[nH]cn1)C(=O)N1CCC[C@H]1C(=O)N[C@@H](C)C(=O)N2` [Mr1.7[H10A]] (H-PECCTHPACAVSHPELC-NH2; disulfide 3-9, 4-17) returned a half-maximal inhibitory concentration (IC50) of 123 nM.

`CC(C)C[C@@H]1NC(=O)[C@H](CCC(=O)O)NC(=O)[C@@H]2CCCN2C(=O)[C@H](C)NC(=O)[C@H](CO)NC(=O)[C@H](C(C)C)NC(=O)[C@H](Cc2c[nH]cn2)NC(=O)[C@@H]2CSSC[C@H](NC(=O)[C@H](CCC(=O)O)NC(=O)[C@@H]3CCCN3)C(=O)N[C@@H](CSSC[C@@H](C(N)=O)NC1=O)C(=O)N[C@@H]([C@@H](C)O)C(=O)N[C@@H](Cc1c[nH]cn1)C(=O)N1CCC[C@H]1C(=O)N[C@@H](C)C(=O)N2` [Mr1.7[H13A]] (H-PECCTHPACHVSAPELC-NH2; disulfide 3-9, 4-17; N-terminus assumed) showed an IC50 in test [6] above 10000 nM.

`CC(C)C[C@@H]1NC(=O)[C@H](CCC(=O)O)NC(=O)[C@@H]2CCCN2C(=O)[C@H](Cc2c[nH]cn2)NC(=O)[C@H](CO)NC(=O)[C@H](C(C)C)NC(=O)[C@H](Cc2c[nH]cn2)NC(=O)[C@@H]2CSSC[C@H](NC(=O)[C@H](CCC(=O)O)NC(=O)[C@H](C)N)C(=O)N[C@@H](CSSC[C@@H](C(N)=O)NC1=O)C(=O)N[C@@H]([C@@H](C)O)C(=O)N[C@@H](Cc1c[nH]cn1)C(=O)N1CCC[C@H]1C(=O)N[C@@H](C)C(=O)N2` [Mr1.7[P1A]] (H-AECCTHPACHVSHPELC-NH2; disulfide 3-9, 4-17) came in with an IC50 in test [6] of 42 nM.

In turn, `CC(C)C[C@@H]1NC(=O)[C@H](CCC(=O)O)NC(=O)[C@@H]2CCCN2C(=O)[C@H](Cc2c[nH]cn2)NC(=O)[C@H](CC(N)=O)NC(=O)[C@H](C(C)C)NC(=O)[C@H](Cc2c[nH]cn2)NC(=O)[C@@H]2CSSC[C@H](NC(=O)[C@H](CCC(=O)O)NC(=O)[C@@H]3CCCN3)C(=O)N[C@@H](CSSC[C@@H](C(N)=O)NC1=O)C(=O)N[C@@H]([C@@H](C)O)C(=O)N[C@@H](Cc1c[nH]cn1)C(=O)N1CCC[C@H]1C(=O)N[C@@H](C)C(=O)N2` [Mr1.7[S12N]] (H-PECCTHPACHVNHPELC-NH2; disulfide 3-9, 4-17) showed a kon in test [1] of 130000 M⁻¹ s⁻¹. This compound also gave a koff in test [1] (SEM) of 0.00407 s⁻¹. The IC50 is 850 nM in test [2]; 220 nM in test [3]; above 10 µM in test [4]; 370 nM and 367 nM in test [5].

Turning to `CC(C)C[C@@H]1NC(=O)[C@H](CCC(=O)O)NC(=O)[C@@H]2CCCN2C(=O)[C@H](Cc2c[nH]cn2)NC(=O)[C@H](CC(N)=O)NC(=O)CNC(=O)[C@H](Cc2c[nH]cn2)NC(=O)[C@@H]2CSSC[C@H](NC(=O)[C@H](CCC(=O)O)NC(=O)[C@@H]3CCCN3)C(=O)N[C@@H](CSSC[C@@H](C(N)=O)NC1=O)C(=O)N[C@@H]([C@@H](C)O)C(=O)N[C@@H](Cc1c[nH]cn1)C(=O)N1CCC[C@H]1C(=O)N[C@@H](C)C(=O)N2` [Mr1.7[V11G,S12N]] (H-PECCTHPACHGNHPELC-NH2; disulfide 3-9, 4-17), in test [6], the IC50 was 28.4 nM.

The compound `CC(C)C[C@@H]1NC(=O)[C@H](CCC(=O)O)NC(=O)[C@@H]2CCCN2C(=O)[C@H](Cc2c[nH]cn2)NC(=O)[C@H](CO)NC(=O)CNC(=O)[C@H](Cc2c[nH]cn2)NC(=O)[C@@H]2CSSC[C@H](NC(=O)[C@H](CCC(=O)O)NC(=O)[C@@H]3CCCN3)C(=O)N[C@@H](CSSC[C@@H](C(N)=O)NC1=O)C(=O)N[C@@H]([C@@H](C)O)C(=O)N[C@@H](Cc1c[nH]cn1)C(=O)N1CCC[C@H]1C(=O)N[C@@H](C)C(=O)N2` [Mr1.7[V11G]] (H-PECCTHPACHGSHPELC-NH2; disulfide 3-9, 4-17) came in with an IC50 in test [6] of 138 nM.

Turning to `CC(C)C[C@@H]1NC(=O)[C@H](CCC(=O)O)NC(=O)[C@@H]2CCCN2C(=O)[C@H](Cc2c[nH]cn2)NC(=O)[C@H](CO)NC(=O)[C@H](C(C)C)NC(=O)[C@H](Cc2c[nH]cn2)NC(=O)[C@@H]2CSSC[C@H](NC(=O)[C@H](CCC(=O)O)NC(=O)[C@@H]3CCCN3C(=O)[C@@H](N)CCCNC(=N)N)C(=O)N[C@@H](CSSC[C@@H](C(N)=O)NC1=O)C(=O)N[C@@H]([C@@H](C)O)C(=O)N[C@@H](Cc1c[nH]cn1)C(=O)N1CCC[C@H]1C(=O)N[C@@H](C)C(=O)N2` [RaaMr1.7] (H-RPECCTHPACHVSHPELC-NH2; disulfide 4-10, 5-18; N-terminus assumed), in test [6], the IC50 worked out at 41.2 nM.

(Values after publication PMC4483627 (Marine Drugs, 2015).)
